Inconclusive results and toxic doses are left out. How the source made its calls: active means survival T/C of 150% or more; inactive means T/C below 125% in these data.
Test system: P388 leukemia ip, CD2F1 mice, survival T/C
Experiment: NCI In Vivo Anticancer Drug Screen. Data for tumor model P388 Leukemia (intraperitoneal) in CD2F1 (CDF1) mice
Conditions: endpoint: median survival time, higher = longer survival
How it was run: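 Mice carrying the transplanted tumor received test compound or vehicle. Survival was recorded in each group, and the value is the treated-group measurement divided by that of the vehicle-treated control group.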

Measured: T/C

CS(=O)(=O)OCC(O)C(O)COS(C)(=O)=O (centres undefined)
inactive: dose: 50.0 mg/kg/injection, schedule: Q01DX001 (ip), vehicle: Klucel (hydroxypropylcellulose) (HPC) 106 % of control | dose: 100.0 mg/kg/injection, schedule: Q01DX001 (ip), vehicle: Klucel (hydroxypropylcellulose) (HPC) 110 % of control | dose: 100.0 mg/kg/injection, schedule: Q01DX001 (ip), vehicle: saline 100 % of control | dose: 100.0 mg/kg/injection, schedule: Q01DX001 (oral), vehicle: saline 100 % of control | dose: 100.0 mg/kg/injection, schedule: Q01DX009 (oral), vehicle: saline 104 % of control | dose: 100.0 mg/kg/injection, schedule: Q03HX008 (ip), vehicle: saline 100 % of control | dose: 100.0 mg/kg/injection, schedule: Q03HX016 (ip), vehicle: saline 100 % of control | dose: 100.0 mg/kg/injection, schedule: Q03HX024 (ip), vehicle: saline 100 % of control | dose: 100.0 mg/kg/injection, schedule: Q04DX003 (ip), vehicle: saline with Tween-80 109 % of control | dose: 100.0 mg/kg/injection, schedule: Q04DX003 (ip), vehicle: saline 104 % of control | dose: 100.0 mg/kg/injection, schedule: Q08DX002 (ip), vehicle: saline 104 % of control | dose: 200.0 mg/kg/injection, schedule: Q01DX001 (ip), vehicle: Klucel (hydroxypropylcellulose) (HPC) 110 % of control | dose: 200.0 mg/kg/injection, schedule: Q01DX001 (ip), vehicle: saline 100 % of control | dose: 200.0 mg/kg/injection, schedule: Q01DX001 (oral), vehicle: saline 100 % of control | dose: 200.0 mg/kg/injection, schedule: Q01DX009 (oral), vehicle: saline 104 % of control | dose: 200.0 mg/kg/injection, schedule: Q03HX008 (ip), vehicle: saline 100 % of control | dose: 200.0 mg/kg/injection, schedule: Q03HX016 (ip), vehicle: saline 100 % of control | dose: 200.0 mg/kg/injection, schedule: Q03HX024 (ip), vehicle: saline 100 % of control | dose: 200.0 mg/kg/injection, schedule: Q04DX003 (ip), vehicle: saline with Tween-80 104 % of control | dose: 200.0 mg/kg/injection, schedule: Q04DX003 (ip), vehicle: saline 100 % of control | dose: 200.0 mg/kg/injection, schedule: Q08DX002 (ip), vehicle: saline 104 % of control | dose: 400.0 mg/kg/injection, schedule: Q01DX001 (ip), vehicle: saline 100 % of control | dose: 400.0 mg/kg/injection, schedule: Q01DX001 (oral), vehicle: saline 109 % of control | dose: 400.0 mg/kg/injection, schedule: Q01DX009 (ip), vehicle: saline 90 % of control | dose: 400.0 mg/kg/injection, schedule: Q01DX009 (oral), vehicle: saline 100 % of control | dose: 400.0 mg/kg/injection, schedule: Q03HX008 (ip), vehicle: saline 109 % of control | dose: 400.0 mg/kg/injection, schedule: Q03HX016 (ip), vehicle: saline 100 % of control | dose: 400.0 mg/kg/injection, schedule: Q03HX024 (ip), vehicle: saline 100 % of control | dose: 400.0 mg/kg/injection, schedule: Q04DX003 (ip), vehicle: saline with Tween-80 118 % of control | dose: 400.0 mg/kg/injection, schedule: Q04DX003 (ip), vehicle: saline 104 % of control | dose: 400.0 mg/kg/injection, schedule: Q08DX002 (ip), vehicle: saline 104 % of control | dose: 800.0 mg/kg/injection, schedule: Q01DX001 (ip), vehicle: saline 109 % of control | dose: 800.0 mg/kg/injection, schedule: Q01DX001 (oral), vehicle: saline 100 % of control | dose: 800.0 mg/kg/injection, schedule: Q01DX009 (oral), vehicle: saline 113 % of control | dose: 800.0 mg/kg/injection, schedule: Q03HX008 (ip), vehicle: saline 109 % of control | dose: 800.0 mg/kg/injection, schedule: Q03HX016 (ip), vehicle: saline 100 % of control | dose: 800.0 mg/kg/injection, schedule: Q03HX024 (ip), vehicle: saline 100 % of control | dose: 800.0 mg/kg/injection, schedule: Q04DX003 (ip), vehicle: saline 114 % of control | dose: 800.0 mg/kg/injection, schedule: Q08DX002 (ip), vehicle: saline 104 % of control

From PubChem BioAssay AID330 (DTP/NCI, 2004)
